Data taken from the NIST ThermoML archive (doi:10.1016/j.jct.2012.02.011).
Values joined by “and” are separate entries in the source; they are usually repeats but may differ in a detail not shown here. Identical values can stand only once. Numbers after ± are expanded uncertainties.

Tests used:
[1] = relative permittivity at various frequencies (dimensionless); settings: 101.3 kPa, Liquid, Frequency=3 MHz
[2] = relative permittivity at various frequencies (dimensionless); xn = mol fraction of the nth substance listed; settings: 101.33 kPa, Liquid, Frequency=3 MHz, OH-301

| SMILES | relative permittivity ([1]; 293.15 K, OH-301) | relative permittivity ([1]; 298.15 K, OH-301) | relative permittivity ([1]; 303.15 K, OH-301) | relative permittivity ([1]; 308.15 K, OH-301) | relative permittivity ([1]; 313.15 K, OH-301) | relative permittivity ([2]; 293.15 K, x1 = 1) | relative permittivity ([2]; 298.15 K, x1 = 1) | relative permittivity ([2]; 303.15 K, x1 = 1) | relative permittivity ([2]; 308.15 K, x1 = 1) | relative permittivity ([2]; 313.15 K, x1 = 1) | also measured |
| --- | --- | --- | --- | --- | --- | --- | --- | --- | --- | --- | --- |
| CCCCOCCO [2-butoxyethan-1-ol] | 9.78 ± 0.04 | 9.35 ± 0.04 | 8.88 ± 0.04 | 8.39 ± 0.04 | 7.91 ± 0.04 |  |  |  |  |  |  |
| CCOCCO [2-ethoxyethan-1-ol] | 14.25 ± 0.04 | 14.03 ± 0.04 | 13.76 ± 0.04 | 13.44 ± 0.04 | 13.07 ± 0.04 |  |  |  |  |  |  |
| COCCO [2-methoxyethan-1-ol] | 17.38 ± 0.04 | 16.95 ± 0.04 and 16.96 ± 0.04 | 16.56 ± 0.04 | 16.16 ± 0.04 | 15.77 ± 0.04 |  |  |  |  |  |  |
| COCCO [2-methoxyethan-1-ol] + O=[N+]([O-])c1ccccc1 |  |  |  |  |  |  |  |  |  |  | relative permittivity ([2]; 293.15 K, x2 = 0): 17.38 ± 0.04; relative permittivity ([2]; 298.15 K, x2 = 0): 16.96 ± 0.04; relative permittivity ([2]; 303.15 K, x2 = 0): 16.56 ± 0.04; relative permittivity ([2]; 308.15 K, x2 = 0): 16.16 ± 0.04; relative permittivity ([2]; 313.15 K, x2 = 0): 15.77 ± 0.04 |
| CCCOCCO [2-propoxyethanol] | 11.76 ± 0.04 | 11.5 ± 0.04 | 11.19 ± 0.04 | 10.91 ± 0.04 | 10.62 ± 0.04 |  |  |  |  |  |  |
| O=[N+]([O-])c1ccccc1 [nitrobenzene] |  |  |  |  |  |  |  |  |  |  | relative permittivity ([1]; 293.15 K, OH-301 Stainless Steel Cell): 35.91 ± 0.06; relative permittivity ([1]; 298.15 K, OH-301 Stainless Steel Cell): 34.78 ± 0.04; relative permittivity ([1]; 303.15 K, OH-301 Stainless Steel Cell): 33.84 ± 0.05; relative permittivity ([1]; 308.15 K, OH-301 Stainless Steel Cell): 33.13 ± 0.05; relative permittivity ([1]; 313.15 K, OH-301 Stainless Steel Cell): 32.66 ± 0.04 |
| O=[N+]([O-])c1ccccc1 [nitrobenzene] + CCCCOCCO |  |  |  |  |  | 35.91 ± 0.06 | 34.78 ± 0.06 | 33.84 ± 0.05 | 33.13 ± 0.05 | 32.66 ± 0.04 |  |
| O=[N+]([O-])c1ccccc1 [nitrobenzene] + CCCOCCO |  |  |  |  |  | 35.91 ± 0.06 | 34.78 ± 0.06 | 33.84 ± 0.05 | 33.13 ± 0.05 | 32.66 ± 0.04 |  |
| O=[N+]([O-])c1ccccc1 [nitrobenzene] + CCOCCO |  |  |  |  |  | 35.91 ± 0.06 | 34.78 ± 0.06 | 33.84 ± 0.05 | 33.13 ± 0.05 | 32.66 ± 0.04 |  |
